In ChEMBL document CHEMBL3351438, “Further optimization of the M5 NAM MLPCN probe ML375: tactics and challenges” (Bioorg Med Chem Lett, 2015):
Each block holds one compound with its values, some of them ahead of it. Active and inactive are the calls of the source. The calls are words filed in the database; no cut-off is given here.

What was measured:
[1] = Fraction unbound in Sprague-Dawley rat brain; assay type: ADME, tissue-based; settings: brain tissue
[2] = target: T1, Muscarinic acetylcholine receptor M5 (Homo sapiens, UniProt P08912); assay: Negative allosteric modulation of human muscarinic acetylcholine receptor M5 expressed in CHO cells assessed as inhibition of acetylcholine-induced calcium mobilization incubated for 150 secs prior to acetylcholine induction by Fluo4AM staining-based fluorescence assay
T1 sequence (P08912 whole entry): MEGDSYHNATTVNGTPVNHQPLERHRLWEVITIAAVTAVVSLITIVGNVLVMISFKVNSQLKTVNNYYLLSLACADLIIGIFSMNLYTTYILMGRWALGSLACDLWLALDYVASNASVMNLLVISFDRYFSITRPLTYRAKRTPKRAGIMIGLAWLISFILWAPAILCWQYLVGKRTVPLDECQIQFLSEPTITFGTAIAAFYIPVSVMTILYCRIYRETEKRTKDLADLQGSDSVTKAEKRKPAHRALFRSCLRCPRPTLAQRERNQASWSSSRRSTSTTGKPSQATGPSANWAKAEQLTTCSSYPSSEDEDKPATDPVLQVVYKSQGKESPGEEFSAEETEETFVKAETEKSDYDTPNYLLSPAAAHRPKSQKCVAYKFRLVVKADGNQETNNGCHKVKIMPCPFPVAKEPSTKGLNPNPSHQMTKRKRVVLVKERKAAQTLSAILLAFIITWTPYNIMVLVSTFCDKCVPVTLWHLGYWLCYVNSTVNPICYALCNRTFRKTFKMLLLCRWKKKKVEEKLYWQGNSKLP

[3] = (§1) Fraction unbound in Sprague-Dawley rat plasma; assay type: ADME, cell-free; settings: Sprague-Dawley
[4] = target: T2, Muscarinic acetylcholine receptor M5 (Rattus norvegicus, UniProt P08911); assay: Negative allosteric modulation of rat muscarinic acetylcholine receptor M5 expressed in CHO cells assessed as inhibition of acetylcholine-induced calcium mobilization incubated for 150 secs prior to acetylcholine induction by Fluo4AM staining-based fluorescence assay; assay type: functional, cell-based
T2 sequence (P08911 whole entry): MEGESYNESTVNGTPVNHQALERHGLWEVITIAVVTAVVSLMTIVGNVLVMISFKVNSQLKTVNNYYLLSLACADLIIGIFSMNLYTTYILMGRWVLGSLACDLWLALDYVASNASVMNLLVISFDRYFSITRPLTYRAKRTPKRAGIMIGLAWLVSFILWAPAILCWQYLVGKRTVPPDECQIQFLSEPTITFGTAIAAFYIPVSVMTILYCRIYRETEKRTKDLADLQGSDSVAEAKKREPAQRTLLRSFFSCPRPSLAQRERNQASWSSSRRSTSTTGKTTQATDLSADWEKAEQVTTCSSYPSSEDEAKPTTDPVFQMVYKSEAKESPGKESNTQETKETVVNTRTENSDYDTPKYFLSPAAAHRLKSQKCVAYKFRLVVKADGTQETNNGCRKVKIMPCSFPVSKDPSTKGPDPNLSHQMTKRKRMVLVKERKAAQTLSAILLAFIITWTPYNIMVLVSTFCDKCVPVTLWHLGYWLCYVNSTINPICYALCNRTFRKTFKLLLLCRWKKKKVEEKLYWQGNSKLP

[5] = Intrinsic clearance in human liver microsomes; assay type: ADME; settings: read-out: CLH
[6] = Intrinsic clearance in human hepatocytes; assay type: ADME, cell-based, Hepatocyte; settings: read-out: CLH
[7] = Intrinsic clearance in rat liver microsomes; assay type: ADME; settings: read-out: CLH
[8] = Intrinsic clearance in rat hepatocytes; assay type: ADME, cell-based, Hepatocyte; settings: read-out: CLH
[9] = Half life in Sprague-Dawley rat at 1 mg/kg, iv; assay type: ADME, organism-based; design: dose 1 mg/kg, route intravenous; settings: in vivo
[10] = Volume of distribution at steady state in Sprague-Dawley rat at 1 mg/kg, iv; assay type: ADME, organism-based; design: dose 1 mg/kg, route intravenous; settings: in vivo, read-out: Vdss
[11] = Mean residence time in Sprague-Dawley rat at 10 mg/kg, po; assay type: ADME, organism-based; design: dose 10 mg/kg, route oral; settings: in vivo
[12] = Tmax in Sprague-Dawley rat at 10 mg/kg, po; assay type: ADME, organism-based; design: dose 10 mg/kg, route oral; settings: in vivo
[13] = test system: Rattus norvegicus; assay: AUC (0 to infinity) in Sprague-Dawley rat at 10 mg/kg, po; assay type: ADME, organism-based, Plasma; design: time infinity, dose 10 mg/kg, route oral; settings: in vivo
[14] = test system: Rattus norvegicus; assay: Oral bioavailability in Sprague-Dawley rat at 10 mg/kg; assay type: ADME, organism-based; settings: in vivo
[15] = AUC (0 to infinity) in Sprague-Dawley rat at 10 mg/kg, po pretreated with 56.6 mg/kg, po 1-aminobenzotriazole; assay type: ADME, organism-based; design: dose 10 mg/kg, time infinity, route oral; settings: plasma
[16] = Oral bioavailability in Sprague-Dawley rat at 10 mg/kg pretreated with 56.6 mg/kg, po 1-aminobenzotriazole; assay type: ADME, organism-based; settings: in vivo
[17] = Cmax in Sprague-Dawley rat in plasma at 10 mg/kg, po pretreated with 56.6 mg/kg, po 1-aminobenzotriazole; assay type: ADME, organism-based; design: dose 10 mg/kg, route oral
[18] = test system: Plasma; assay: fCmax in Sprague-Dawley rat plasma at 10 mg/kg, po pretreated with 56.6 mg/kg, po 1-aminobenzotriazole; assay type: ADME, organism-based; settings: in vivo
[19] = Cmax in Sprague-Dawley rat in brain at 10 mg/kg, po pretreated with 56.6 mg/kg, po 1-aminobenzotriazole; assay type: ADME, organism-based; design: dose 10 mg/kg, route oral
[20] = (§2) Fraction unbound in human plasma; assay type: ADME, cell-free
[21] = target: T3, Muscarinic acetylcholine receptor M5 (Homo sapiens) (UniProt P08912); settings: CHO
T3 sequence (whole entry): T1 sequence (P08912 whole entry)

[22] = test system: Plasma; assay: as §1; assay type: ADME, cell-free
[23] = test system: Plasma; assay: as §2; assay type: ADME, cell-free

Structure (SMILES): COc1ccc([C@@]23c4ccccc4C(=O)N2CCN3C(=O)c2cc(F)c(F)c(F)c2)cc1C
fraction unbound [1]: 0.006
IC50 [2]: 264 nM
fraction unbound [3]: 0.031
IC50 ([4]; read-out: IC50): 516 nM
CLint scaled [5]: 359 mL/min/kg
CLint scaled [6]: 19.8 mL/min/kg
CLint scaled [7]: 332 mL/min/kg
CLint scaled [8]: 57.8 mL/min/kg
half-life [9]: 1.08 h
Vd [10]: 4.9 L/kg
MRT [11]: 6.5 h
Tmax [12]: 2.8 h
AUC [13]: 3660 ng·h/mL
F [14]: 2%
AUC(0-inf) [15]: 17700 ng·h/mL
bioavailability [16]: 9.5%
Cmax [17]: 2 µM
fCmax [18]: 62 nM
Cmax [19]: 5.4 µM

Structure (SMILES): COc1ccc([C@]23c4ccccc4C(=O)N2CCN3C(=O)c2cc(F)c(F)c(F)c2)cc1C
IC50 ([2]; cho): Not Active
fraction unbound [20]: 0.013
IC50 ([4]; cho): Not Active
pIC50 [21]: inactive

CLint scaled [6]: 16.3 mL/min/kg
CLint scaled [7]: 275 mL/min/kg
CLint scaled [8]: 55.8 mL/min/kg
Structure (SMILES): [2H]C([2H])([2H])Oc1ccc([C@@]23c4ccccc4C(=O)N2CCN3C(=O)c2cc(F)c(F)c(F)c2)cc1C

Structure (SMILES): O=C(c1ccc(F)c(F)c1)N1CCN2C(=O)c3ccccc3C12c1ccc(Cl)cc1 (racemic)
Fu [22]: 0.031
Fu [23]: 0.015

Structure (SMILES): CC(C)Oc1ccc(C23c4ccccc4C(=O)N2CCN3C(=O)c2ccc(F)c(F)c2)cc1 (racemic)
IC50 [2]: > 30000 nM

Structure (SMILES): O=C(c1ccc(F)c(F)c1)N1CCN2C(=O)c3ccccc3C12c1ccc2c(c1)OCO2 (racemic)
IC50 [2]: 1300 nM

Structure (SMILES): COc1ccc(C23c4ccccc4C(=O)N2CCN3C(=O)c2ccc(F)c(F)c2)cc1F (racemic)
IC50 [2]: 3300 nM

Structure (SMILES): COc1ccc(C23c4ccccc4C(=O)N2CCN3C(=O)c2ccc(F)c(F)c2)cc1Cl (racemic)
IC50 [2]: 5500 nM

Structure (SMILES): COc1ccc(C23c4ccccc4C(=O)N2CCN3C(=O)c2ccc(F)c(F)c2)cc1C (racemic)
IC50 [2]: 1200 nM

Structure (SMILES): COc1cc(C23c4ccccc4C(=O)N2CCN3C(=O)c2ccc(F)c(F)c2)ccc1F (racemic)
IC50 [2]: 2700 nM

Structure (SMILES): COc1cc(C23c4ccccc4C(=O)N2CCN3C(=O)c2ccc(F)c(F)c2)ccc1Cl (racemic)
IC50 [2]: 2000 nM

Structure (SMILES): COc1cc(C23c4ccccc4C(=O)N2CCN3C(=O)c2ccc(F)c(F)c2)ccc1C (racemic)
IC50 [2]: 1300 nM

Structure (SMILES): CCOc1ccc(C23c4ccccc4C(=O)N2CCN3C(=O)c2cc(F)c(F)c(F)c2)cc1 (racemic)
IC50 [2]: > 30000 nM

Structure (SMILES): CC(C)Oc1ccc(C23c4ccccc4C(=O)N2CCN3C(=O)c2cc(F)c(F)c(F)c2)cc1 (racemic)
IC50 [2]: 2400 nM

Structure (SMILES): O=C(c1cc(F)c(F)c(F)c1)N1CCN2C(=O)c3ccccc3C12c1ccc2c(c1)OCO2 (racemic)
IC50 [2]: 1000 nM

Structure (SMILES): COc1ccc(C23c4ccccc4C(=O)N2CCN3C(=O)c2cc(F)c(F)c(F)c2)cc1F (racemic)
IC50 [2]: > 30000 nM

Structure (SMILES): COc1ccc(C23c4ccccc4C(=O)N2CCN3C(=O)c2cc(F)c(F)c(F)c2)cc1Cl (racemic)
IC50 [2]: 1400 nM

Structure (SMILES): COc1ccc(C23c4ccccc4C(=O)N2CCN3C(=O)c2cc(F)c(F)c(F)c2)cc1C (racemic)
IC50 [2]: 510 nM
IC50 ([4]; read-out: IC50): 963 nM

Structure (SMILES): COc1cc(C23c4ccccc4C(=O)N2CCN3C(=O)c2cc(F)c(F)c(F)c2)ccc1F (racemic)
IC50 [2]: 700 nM

Structure (SMILES): COc1cc(C23c4ccccc4C(=O)N2CCN3C(=O)c2cc(F)c(F)c(F)c2)ccc1Cl (racemic)
IC50 [2]: 1600 nM

Structure (SMILES): COc1cc(C23c4ccccc4C(=O)N2CCN3C(=O)c2cc(F)c(F)c(F)c2)ccc1C (racemic)
IC50 [2]: 900 nM

Structure (SMILES): CCOc1ccc(C23c4ccccc4C(=O)N2CCN3C(=O)c2ccc(OC(C)C)cc2)cc1 (racemic)
IC50 [2]: 4100 nM

Structure (SMILES): CC(C)Oc1ccc(C(=O)N2CCN3C(=O)c4ccccc4C23c2ccc(OC(C)C)cc2)cc1 (racemic)
IC50 [2]: 1900 nM

Structure (SMILES): CC(C)Oc1ccc(C(=O)N2CCN3C(=O)c4ccccc4C23c2ccc3c(c2)OCO3)cc1 (racemic)
IC50 [2]: 1100 nM

Structure (SMILES): COc1ccc(C23c4ccccc4C(=O)N2CCN3C(=O)c2ccc(OC(C)C)cc2)cc1F (racemic)
IC50 [2]: 3200 nM

Structure (SMILES): COc1ccc(C23c4ccccc4C(=O)N2CCN3C(=O)c2ccc(OC(C)C)cc2)cc1Cl (racemic)
IC50 [2]: 3300 nM

Structure (SMILES): COc1ccc(C23c4ccccc4C(=O)N2CCN3C(=O)c2ccc(OC(C)C)cc2)cc1C (racemic)
IC50 [2]: 1300 nM
